This is an account of results in publication PMC11227536, “Modulation of the Meisenheimer complex metabolism of nitro-benzothiazinones by targeted C-6 substitution” (Communications Chemistry, 2024).

Values after ≈ are worked out from the molar mass of the structure shown. Where only a bound is given, the exact number is not on record here.

Holding throughout (type): cell-based
One data set has as its system HUVEC. Description: Proliferation assay. The settings on record: Homo sapiens, 72 h, n = 4. As for the experimental part: (§1) Supplementary Method 5: Biological Assays […]
(§2) 2. Proliferation and cytotoxicity assay
(§3) Cells and culture conditions
(§4) The following cell lines and media were used:
(§5) Cell line Cell culture medium
(§6) Cells were grown in the appropriate cell culture medium supplemented with 10 mL/L ultraglutamine 1 […]
(§7) heat inactivated fetal bovine serum (GIBCO Life Technologies 10270-106) at 37 °C in 5% CO 2 in high density polyethylene flasks (NUNC 156340).
(§8) To decide if the compounds have an antiproliferative and/or a cytotoxic effect on human cells, cell death and retardation of cell proliferation were assessed. Under our experimental conditions, the optical density measured from the CellTiter-Blue® reagent and methylene blue assay is proportional to the […]
(§9) The test substances were dissolved in DMSO and further diluted in the cell culture medium. The adherent cells were harvested at the logarithmic growth phase after soft trypsinization using 0.25% trypsin in PBS containing 0.02% EDTA (Biochrom KG L2163). For each experiment, approximately 10,000 cells were seeded with 0.1 mL culture medium per well of the 96-well microplates (HUVEC: flat bottomed NUNC 167008, K-562: round bottomed NUNC 163320). To test the antiproliferative […]
(§10) effect of test compounds on HUVEC and K-562, the cells were incubated for 72 hours in plates prepared with control and different dilutions of test substances. […]
(§11) of proliferation compared to the untreated control. […]
(§12) Cells were incubated with dilutions of the test substances in microplates for 72 hours at 37 °C in a humidified atmosphere and 5% CO 2. […]
(§13) cytotoxicity and the inhibition of cell proliferation. The number of viable cells was determined subsequent to staining with CellTiter-Blue® reagent or methylene blue. […]
(§14) HUVEC and HeLa cells: The adherent HUVEC and HeLa cells were fixed by glutaraldehyde (MERCK […]
(§15) gently washing, the stain was eluted by adding 0.2 mL of hydrochloric acid (0.33 M) to each well. The optical densities were measured at 660 nm (methylene blue) in SUNRISE microplate reader (TECAN).
(§16) General remarks: Signals from the methylene blue and CellTiter-Blue® reagent are proportional to the number of viable cells. A repeat determination has been conducted in all experiments, four replicates were assayed. The calculations of the different values of GI 50 and CC 50 were performed with the software

The subject of a further data set is K-562. Description: Proliferation assay. The settings on record: Homo sapiens, K562; 72 h, n = 4. As to the method:
as §1, §2, §3, §4, §5, §6, §7, §8, §9, §10, §11, §12
cytotoxicity and the inhibition of cell proliferation. The number of viable cells was determined subsequent to staining with CellTiter-Blue® reagent or methylene blue.
K-562 cells: The influence of test substances on cell proliferation of K-562 was determined via the CellTiter-Blue® assay (PROMEGA). Briefly, viable cells are able to reduce the indicator dye resazurin […]
dye. Thus, formation of resorufin was followed by measuring absorption at 570 nm and subtracting absorption measured at 600 nm. […]
as §16

Data set [1] has as its system Mycobacterium vaccae (JMRC:STI:10670). Put plainly: MIC determination. The settings on record: for antimycobacterial activity (in words): M. vaccae; for MIC: Mycolicibacterium vaccae, n = 1; for Selectivity index: ratio between CC50 (HeLa) and MIC M. vaccae. As to the method:
Supplementary Method 5: Biological Assays
Minimal inhibitory concentrations were determined against Mycobacterium vaccae (JMRC:STI:10670) and Mycobacterium smegmatis (JMRC:STH:00056). M. vaccae and M. smegmatis cultures were grown 48 h at 32 °C in a medium consisting of glycerol (1%), beef extract (0.5%), peptone from casein (0.5%) and sodium chloride (0.3%). Serial dilutions of the DMSO test item solutions (1 mg∙mL -1) were prepared at 100 µL scale in 96 well plates in Mueller Hinton broth starting at 200 µg∙mL -1 (highest) to cover a final concentration range of 100 to 0.05 µg∙mL -1. Each plate was equipped with a series of DMSO and ciprofloxacin dilutions as quality controls. 96 well plates were inoculated with 100 µL diluted culture (Mueller Hinton bullion) at a final concentration of 5∙10 5 and incubated at 37 °C for 42 h. Growth/no growth was visually inspected.
as §2, §3, §4, §5, §6, §7, §8
The test substances were dissolved in DMSO and further diluted in the cell culture medium. The adherent cells were harvested at the logarithmic growth phase after soft trypsinization using 0.25% trypsin in PBS containing 0.02% EDTA (Biochrom KG L2163). For each experiment, approximately 10,000 cells were seeded with 0.1 mL culture medium per well of the 96-well microplates (HUVEC: flat bottomed NUNC 167008, K-562: round bottomed NUNC 163320). To test the antiproliferative

The nature of the next data set: Cytotoxicity assay. The settings on record: human, n = 4. As for the experimental part: as §1, §2, §3, §4, §5, §6, §7, §8
The test substances were dissolved in DMSO and further diluted in the cell culture medium. The adherent cells were harvested at the logarithmic growth phase after soft trypsinization using 0.25% trypsin in PBS containing 0.02% EDTA (Biochrom KG L2163). For each experiment, approximately 10,000 cells were seeded with 0.1 mL culture medium per well of the 96-well microplates (HUVEC: flat bottomed NUNC 167008, K-562: round bottomed NUNC 163320). […]
For the cytotoxicity assay, HeLa cells were preincubated for 48 hours without the test substances. To test the cytotoxic effect on HeLa, dilutions of the compounds were carried out carefully on the subconfluent monolayers of HeLa cells after the preincubation time. After incubation time, the cytolytic effect of compounds was analysed in comparison to the negative control. The 50% cytotoxic concentration (CC 50 ) was defined as the test compound concentration required for destruction of the cell monolayer by 50% compared to untreated control.
as §12, §13, §14, §15, §16

As usually defined, the GI50 is the concentration at which growth is held to half of that of the control. What is called MIC is the least concentration at which growth counts as inhibited. As a reminder, the CC50 is the concentration that lowers cell viability or growth by half. Read a low CC50 as harm at low concentration.

In the data set on HUVEC, `C[C@H]1COC2(CCN(c3nc(=O)c4cc(C#N)cc([N+](=O)[O-])c4s3)CC2)O1` [Compound 9] yielded a GI50 of 49.9 ± 4.1 µM. Further, in the data set with K-562, the GI50 is 94.4 ± 5.9 µM. Moreover, in data set [1], the “antimycobacterial activity (in words)” value was “similarly active as BTZ-043 (1)”, the MIC was 0.016 µM (≈ 0.00621 µg/mL) and the Selectivity index was > 8062. In addition, the CC50 at 72 h in the data set “Cytotoxicity assay” was > 129 µM.
On to `C[C@H]1COC2(CCN(c3nc(=O)c4cc(Br)cc([N+](=O)[O-])c4s3)CC2)O1` [Compound 11], for which the 50% growth inhibitory concentration (GI50) in the data set on HUVEC is > 113 µM. The GI50 in the data set on K-562 is > 113 µM. Moreover, in data set [1], the “antimycobacterial activity (in words)” value is listed as “similarly active as BTZ-043 (1)”, inhibition of growth (MIC) required 0.004 µM (≈ 0.00177 µg/mL) and the Selectivity index is on record as > 31236. The CC50 at 72 h in “Cytotoxicity assay” is > 113 µM.
Take `CC(C)OC(=O)c1cc([N+](=O)[O-])c2sc(N3CCC4(CC3)OC[C@H](C)O4)nc(=O)c2c1` [Compound 6c]: in the data set on HUVEC, the GI50 was > 111 µM. In addition, the GI50 with K-562 was > 111 µM. Besides, in data set [1], the MIC stood at 0.22 µM (≈ 0.0989 µg/mL) and the Selectivity index is reported as > 500. In the data set “Cytotoxicity assay”, the CC50 at 72 h is > 111 µM.
In the data set on HUVEC, `CON(C)C(=O)c1cc([N+](=O)[O-])c2sc(N3CCC4(CC3)OC[C@H](C)O4)nc(=O)c2c1` [Compound 7f] showed a GI50 of 98.5 ± 3.3 µM. In addition, the GI50 in the data set with K-562 was > 111 µM. For the same molecule, in data set [1], the MIC stood at 13.9 µM (≈ 6.26 µg/mL) and the Selectivity index is reported as > 8. The CC50 at 72 h in the data set “Cytotoxicity assay” was > 111 µM.
In turn, `COC(=O)c1cc([N+](=O)[O-])c2sc(N3CCC4(CC3)OC[C@H](C)O4)nc(=O)c2c1` [Compound 6a] had a GI50 with HUVEC of 80.6 ± 5 µM. Also, in the data set on K-562, the GI50 worked out at 66.9 ± 12.6 µM. In data set [1], the MIC stood at 0.24 µM (≈ 0.101 µg/mL) and the Selectivity index was > 500. Also, the CC50 at 72 h in the data set “Cytotoxicity assay” was > 119 µM.
Consider `C[C@H]1COC2(CCN(c3nc(=O)c4cc(C(=O)O)cc([N+](=O)[O-])c4s3)CC2)O1` [Compound 8], for which, in the data set on HUVEC, the GI50 is > 123 µM. The GI50 with K-562 is > 123 µM. Moreover, in data set [1], the “antimycobacterial activity (in words)” value is on record as “moderate activity”, the minimum inhibitory concentration (MIC) turned out to be 0.98 µM (≈ 0.399 µg/mL) and the Selectivity index is reported as > 125. The CC50 at 72 h in “Cytotoxicity assay” was > 123 µM.
For `C[C@H]1COC2(CCN(c3nc(=O)c4cc(I)cc([N+](=O)[O-])c4s3)CC2)O1` [Compound 10], the GI50 in the data set on HUVEC is > 102 µM. Besides, the GI50 in the data set with K-562 was > 102 µM. For the same molecule, in data set [1], the “antimycobacterial activity (in words)” value is reported as “similarly active as BTZ-043 (1)”, 0.006 µM (≈ 0.00294 µg/mL) was the least that counted as inhibitory (MIC) and the Selectivity index is > 16114. Further, in “Cytotoxicity assay”, the half-maximal cytotoxic concentration (CC50) at 72 h was > 102 µM.
`C[C@H]1COC2(CCN(c3nc(=O)c4cc(C(=O)N(C)C)cc([N+](=O)[O-])c4s3)CC2)O1` [Compound 7c]: in the data set on HUVEC, the GI50 was > 115 µM. Moreover, the GI50 in the data set on K-562 is > 115 µM. For the same molecule, in data set [1], it took 28.8 µM (≈ 12.5 µg/mL) to inhibit growth (MIC) and the Selectivity index is > 4. Further, the CC50 at 72 h in the data set “Cytotoxicity assay” was > 115 µM.
`C[C@H]1COC2(CCN(c3nc(=O)c4cccc([N+](=O)[O-])c4s3)CC2)O1` [Compound 23]: the GI50 in the data set with HUVEC was > 137 µM. Further, the concentration for 50% growth inhibition (GI50) with K-562 is > 138 µM. In data set [1], the “antimycobacterial activity (in words)” value was “significantly lower activity than 1” and the Selectivity index was > 125. In data set [1] (42 h), this molecule yielded an MIC of 1.1 µM (≈ 0.4 µg/mL). In addition, in the data set “Cytotoxicity assay”, the CC50 at 72 h is > 138 µM.
